From patent US9757355B2, “Oral dosage forms of cyclopropanecarboxylic acid {2-[(1S)-1-(3-ethoxy-4-methoxy-phenyl)-2-methanesulfonyl-ethyl]-3-oxo-2,3-dihydro-1H-isoindol-4-yl}-amide” (Celgene Corporation, priority 2011, dated 2017) come the findings set out here.

The term ED50 denotes the dose that gives a 50% effect, or the effect in half of the subjects. For orientation: solubility means how much of the substance goes into solution per volume. Read a high solubility as a readily soluble substance. The term IC50 denotes the concentration needed to halve the response being measured.

Structures are written as SMILES. In brackets after ≈: the same amount, converted by molar mass.

One data set relates to TNF-α. Description: In vivo LPS-induced TNF-α production assay. Conditions: Rattus norvegicus, 1.5 h; p.o.; male CD rats, 0.05 mg/kg LPS, blood 90 minutes after LPS challenge; read-out: ED50, TNF-α levels in rat plasma. As for the experimental part: Male CD rats procured from Charles River Laboratories at seven weeks of age are allowed to acclimate for one week prior to use. A lateral tail vein is cannulated percutaneously with a 22-gage over-the-needle catheter under brief isoflurane anesthesia. Rats are administered a PDE4 inhibitor of the invention either by intravenous injection via the tail vein catheter or oral gavage 15 to 180 min prior to injection of 0.05 mg/kg LPS (E. Coli 055:B5). Catheters are flushed with 2.5 mL/kg of normal injectable saline. Blood is collected via cardiac puncture 90 minutes after LPS challenge. Plasma is prepared using lithium heparin separation tubes and frozen at −80° C. until analyzed. TNF-α levels are determined using a rat specific TNF-α ELISA kit (Busywork). The ED50 values are calculated as the dose of the PDE4 inhibitor of the invention at which the TNF-α production is reduced to 50% of the control value.

The nature of another data set: Aqueous solubility. It is filed as physicochemical. Conditions: water (aqueous). As to the method:
Thus, there exists a need for alternative formulations of Compound A in order to increase the bioavailability of the drug upon oral administration. Provided herein are oral dosage forms addressing this need.
The above method results in a physically stable solid dispersion of Compound A having an aqueous solubility of about 2 μg/mL.

For data set [1], the target named is Phosphodiesterase 4 enzyme. Description: Inhibition of PDE4. The data set is classed as biochemical. Particulars: PDE4 purified from U937 human monocytic cells; 1 μM cAMP, 45 min at 30° C. As for the experimental part:
Phosphodiesterase 4 enzyme was purified from U937 human monocytic cells by gel filtration chromatography, and phosphodiesterase reactions were carried out as previously described. See, e.g., Muller et al., Bioorg. Med. Chem. Lett., 1998, 8(19): 2669-2674. Briefly, reactions were carried out in 96-well deep-well plates in 50 mM Tris HCl pH 7.5, 5 mM MgCl2, 1 μM cyclic adenosine monophosphate (cAMP), plus 10 nM [^3H]-cAMP for 45 min at 30° C. The reactions were terminated by boiling, treated with 1 mg/ml snake venom, and separated using AG-1X8 ion exchange resin (BioRad). Reactions consumed less than 15% of available substrate.

For the compound `CCOc1cc([C@@H](CS(C)(=O)=O)N2Cc3cccc(NC(=O)C4CC4)c3C2=O)ccc1OC` [Compound A, Cyclopropanecarboxylic acid {2-[(1S)-1-(3-ethoxy-4-methoxy-phenyl)-2-methanesulfonyl-ethyl]-3-oxo-2,3-dihydro-1H-isoindol-4-yl}-amide], in the data set with TNF-α, the 50% effective dose (ED50) was about 7.8 µg/kg. This compound also returned a solubility in “Aqueous solubility” of about 2 µg/mL (≈ 4.23 µM). In data set [1], this compound gave an IC50 of 105 nM.
